Read-outs that look alike come from different tables or passages of the source.
Target: T1, F508delCFTR (Homo sapiens, UniProt P13569, DEL508-508)
T1 construct: expressed in transfected cells; host or cells: CFBE41o- human lung-derived epithelial cells (CFBE4lo-F508delCFTR-HRP), doxycycline-inducible
Experiment: Cell Surface Expression-Horse Radish Peroxidase (CSE-HRP) Assay;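 for Maximum % activity (with co-corrector): co-corrector and positive control are both the same reference corrector at 2 µM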
Type: cell-based
Details: for Maximum % activity (with co-corrector) / Emax: maximum at any tested concentration, normalized to on-plate positive control; for Emax: read-out: Maximum % activity (without co-corrector)
Method: Cell Surface Expression-Horse Radish Peroxidase (CSE-HRP) Assay;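 for Maximum % activity (with co-corrector): co-corrector and positive control are both the same reference corrector at 2 µM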
The development was achieved by expressing the F508delCFTR mutation along with a horseradish peroxidase (HRP) in the fourth exofacial loop, and then measuring the HRP activity using luminescence readout from these cells, CFBE4lo-F508delCFTR-HRP, that were incubated overnight with the test corrector compounds, either without or with the co-corrector. […] The test compounds were then added either without or with a co-corrector at the required concentrations and further incubated for 18-24 hours at 33° C. The highest concentration tested was 20 μM with an 8-point concentration response curve using a 3-fold dilution in both the test compound without or with the co-corrector. Three replicate plates were run to determine one EC50. All plates contained negative controls (dimethyl sulfoxide, DMSO) and positive control (2 μM of 3-[(2R,4R)-4-({[1-(2,2-difluoro-1,3-benzodioxol-5-yl)cyclopropyl]carbonyl}amino)-7-methoxy-3,4-dihydro-2H-chromen-2-yl]benzoic acid) as well as on-plate concentration response of the positive control. […] The raw counts from the experiment were analyzed using Accelrys® Assay Explorer v3.3.
1−[3*SDPositive Control+3*SDNegative Control/Absolute(MeanPositive Control−MeanNegative Control)]
wherein “SD” is standard deviation.
The % activity measured at each of the 8 test concentrations of the test compound added either without or with a co-corrector (2 μM of 3-[(2R,4R)-4-({[1-(2,2-difluoro-1,3-benzodioxol-5-yl)cyclopropyl]carbonyl}amino)-7-methoxy-3,4-dihydro-2H-chromen-2-yl]benzoic acid) was normalized to the on-plate positive control using the following formulae:
% activity(Test compound without co-corrector)=[(test compound without co-corrector response−DMSO response)/(positive control response−DMSO response)]*100
% activity(Test compound with co-corrector)=[(test compound with co-corrector response−DMSO response)/(positive control response−DMSO response)]*100
The maximum % activity achieved for the test compound either without or with a co-corrector at any tested concentration is presented in Table 4 along with the respective EC50's calculated using the following general sigmoidal curve with variable Hill slope equation (described as Model 42 in the Accelrys® Assay Explorer v3.3 software):
General sigmoidal curve with concentration, response, top, bottom, EC50 and Hill slope. This model describes a sigmoidal curve with an adjustable baseline, a. The equation can be used to fit curves where response is either increasing or decreasing with respect to the independent variable, “x”.
“x” is a concentration of drug under test. “y” is the response. “a” is the maximum response, and “d” is the minimum response “c” is the inflection point (EC50) for the curve. That is, “y” is halfway between the lower and upper asymptotes when x=c. “b” is the slope-factor or Hill coefficient. The sign of b is positive when the response increases with increasing dose and is negative when the response decreases with increasing dose (inhibition).

[1] = test compound without co-corrector, read-out: EC50 (without co-corrector)
[2] = with co-corrector (2 μM of 3-[(2R,4R)-4-({[1-(2,2-difluoro-1,3-benzodioxol-5-yl)cyclopropyl]carbonyl}amino)-7-methoxy-3,4-dihydro-2H-chromen-2-yl]benzoic acid), read-out: EC50 (with co-corrector)
[3] = CSE-HRP, test compound without co-corrector, read-out: EC50 (without co-corrector)
[4] = CSE-HRP, with co-corrector (2 μM of 3-[(2R,4R)-4-({[1-(2,2-difluoro-1,3-benzodioxol-5-yl)cyclopropyl]carbonyl}amino)-7-methoxy-3,4-dihydro-2H-chromen-2-yl]benzoic acid), read-out: EC50 (with co-corrector)
[5] = CSE-HRP, with co-corrector (2 μM)
[6] = test compound without co-corrector
[7] = with co-corrector (2 μM of 3-[(2R,4R)-4-({[1-(2,2-difluoro-1,3-benzodioxol-5-yl)cyclopropyl]carbonyl}amino)-7-methoxy-3,4-dihydro-2H-chromen-2-yl]benzoic acid)

T1 sequence (P13569 with tags, fused parts or gaps DEL508-508): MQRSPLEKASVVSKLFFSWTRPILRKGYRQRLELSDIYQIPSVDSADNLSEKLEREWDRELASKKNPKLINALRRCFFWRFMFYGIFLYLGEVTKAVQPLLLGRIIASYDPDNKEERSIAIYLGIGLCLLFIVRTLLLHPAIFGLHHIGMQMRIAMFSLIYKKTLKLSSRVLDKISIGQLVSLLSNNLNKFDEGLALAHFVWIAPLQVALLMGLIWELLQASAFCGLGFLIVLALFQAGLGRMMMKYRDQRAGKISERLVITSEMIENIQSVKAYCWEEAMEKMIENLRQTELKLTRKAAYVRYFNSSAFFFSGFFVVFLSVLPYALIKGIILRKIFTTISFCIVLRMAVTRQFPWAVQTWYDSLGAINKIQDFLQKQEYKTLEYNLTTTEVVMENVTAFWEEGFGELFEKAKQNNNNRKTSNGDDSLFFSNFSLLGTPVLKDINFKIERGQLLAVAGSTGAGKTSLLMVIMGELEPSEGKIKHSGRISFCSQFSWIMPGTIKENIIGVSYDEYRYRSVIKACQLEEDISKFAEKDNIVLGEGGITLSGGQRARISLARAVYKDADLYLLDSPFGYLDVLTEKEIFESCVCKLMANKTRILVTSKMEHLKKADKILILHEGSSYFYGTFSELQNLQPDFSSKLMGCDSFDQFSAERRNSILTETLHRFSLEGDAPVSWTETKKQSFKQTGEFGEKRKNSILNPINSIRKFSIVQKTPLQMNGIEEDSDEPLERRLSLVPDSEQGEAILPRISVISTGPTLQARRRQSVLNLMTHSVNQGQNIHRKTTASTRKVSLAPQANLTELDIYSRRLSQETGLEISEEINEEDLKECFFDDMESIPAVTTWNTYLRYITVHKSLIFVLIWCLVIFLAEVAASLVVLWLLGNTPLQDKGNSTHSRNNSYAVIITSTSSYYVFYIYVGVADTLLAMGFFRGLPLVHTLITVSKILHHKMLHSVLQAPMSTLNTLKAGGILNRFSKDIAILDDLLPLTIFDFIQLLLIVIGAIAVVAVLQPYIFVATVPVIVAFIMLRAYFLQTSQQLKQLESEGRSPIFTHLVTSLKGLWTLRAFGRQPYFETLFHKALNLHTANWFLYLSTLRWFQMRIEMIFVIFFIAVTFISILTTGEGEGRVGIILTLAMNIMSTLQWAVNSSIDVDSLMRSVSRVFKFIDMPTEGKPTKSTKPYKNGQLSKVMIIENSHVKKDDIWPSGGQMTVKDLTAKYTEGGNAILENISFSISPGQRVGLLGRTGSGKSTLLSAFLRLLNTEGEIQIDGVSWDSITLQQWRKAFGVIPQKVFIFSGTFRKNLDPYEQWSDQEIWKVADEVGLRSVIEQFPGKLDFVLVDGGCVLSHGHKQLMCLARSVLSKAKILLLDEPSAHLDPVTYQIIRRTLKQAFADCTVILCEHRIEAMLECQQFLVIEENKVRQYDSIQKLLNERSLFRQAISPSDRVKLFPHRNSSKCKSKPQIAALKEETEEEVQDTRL

EC50 [1] [nM] | EC50 [2] [nM] | Maximum % activity (with co-corrector) (with co-corrector (2 μM)) | Emax (without co-corrector) [%] | EC50 [3] [nM] | EC50 [4] [nM] | Maximum % activity (with co-corrector) [5] | Emax (CSE-HRP, without co-corrector) [%] | Emax [6] [%] | Maximum % activity (with co-corrector) [7] | Maximum % activity (with co-corrector) (with co-corrector (2 μM), 2 µM) | Structure (SMILES)
 |  |  |  | 1000 to 10000 | 1000 to 10000 | +++ (≥350) | 100 to 200 |  |  |  | COc1cccc(Cl)c1CN[C@@H]1[C@@H](C(C)(C)C)[C@H](C(=O)O)N(C(=O)C2CCCCC2)[C@@H]1c1ccccc1 (racemic) [II-10]
1000 to 10000 | 1000 to 10000 |  |  |  |  |  |  | < 100 | ++ (≥150 and <350) |  | Cc1cc(C(F)(F)F)cc(N[C@@H]2[C@@H](C(C)(C)C)[C@H](C(=O)O)N(C(=O)C3CCCCC3)[C@@H]2c2ccccc2)[n+]1[O-] (racemic) [III-32]
1000 to 10000 | 1000 to 10000 |  |  |  |  |  |  | > 200 | +++ (≥350) |  | COc1ncc(C(F)(F)F)cc1CN[C@H]1[C@H](C(C)(C)C)[C@@H](C(=O)O)N(C(=O)OC(C)C)[C@H]1c1ccccc1 [II-425]
 |  |  |  | 1000 to 10000 | 1000 to 10000 | +++ (≥350) | 100 to 200 |  |  |  | COc1ccc(-c2cccnc2OC)cc1CN[C@H]1[C@H](C(C)(C)C)[C@@H](C(=O)O)N(C(=O)C2CCCCC2)[C@H]1c1ccccc1 [II-250]
1000 to 10000 | 1000 to 10000 |  |  |  |  |  |  | > 200 | +++ (≥350) |  | COc1ccc(C(C)(C)C)cc1CN[C@H]1[C@H](C(C)(C)C)[C@@H](C(=O)O)N(C(=O)C2CCN(C(=O)C3CC3)CC2)[C@H]1c1ccccc1 [II-316]
1000 to 10000 | 1000 to 10000 |  |  |  |  |  |  | 100 to 200 | +++ (≥350) |  | COc1ccc(C(C)(C)C)cc1CN[C@H]1[C@H](C(C)(C)C)[C@@H](C(=O)O)N(C(=O)[C@H](C)[C@@H]2CCCCO2)[C@H]1c1ccccc1 (relative stereo) [II-454]
1000 to 10000 | 1000 to 10000 |  |  |  |  |  |  | > 200 | +++ (≥350) |  | COc1ncc(C(F)(F)F)cc1CN[C@H]1[C@H](C(C)(C)C)[C@@H](C(=O)O)N(C(=O)OC(C)C)[C@H]1c1cccnc1N(C)C [II-510]
 |  |  |  | 1000 to 10000 | 1000 to 10000 | +++ (≥350) | 100 to 200 |  |  |  | COc1cc(C(F)(F)F)ccc1CN[C@@H]1[C@@H](C(C)(C)C)[C@H](C(=O)O)N(C(=O)[C@@H]2CCCCO2)[C@@H]1c1ccccc1 (racemic) [II-49]
 |  |  |  | 1000 to 10000 | 1000 to 10000 | +++ (≥350) | < 100 |  |  |  | COc1ccc(-c2cccnc2)cc1CN[C@H]1[C@H](C(C)(C)C)[C@@H](C(=O)O)N(C(=O)C2CCCCC2)[C@H]1c1ccccc1 [II-284]
1000 to 10000 | < 1000 |  |  |  |  |  |  | 100 to 200 | +++ (≥350) |  | COc1cc(C(F)(F)F)ccc1CN[C@H]1[C@H](C23CC(C2)C3)[C@@H](C(=O)O)N(C(=O)C2CCCCC2)[C@H]1c1ccccc1 [II-470]
> 10000 | 1000 to 10000 | ++ (≥150 and <350) |  |  |  |  |  | < 100 |  |  | COc1ccc(C(F)(F)F)cc1CN[C@@H]1[C@@H](C(C)(C)C)[C@H](C(=O)O)N(C(=O)[C@H](OC)c2ccccc2)[C@@H]1c1ccccc1N(C)C [III-98]
1000 to 10000 | < 1000 |  |  |  |  |  |  | > 200 | +++ (≥350) |  | COc1ccc(C23CC(C2)C3)cc1CN[C@H]1[C@H](C(C)(C)C)[C@@H](C(=O)O)N(C(=O)C2CCCCC2)[C@H]1c1cccnc1N(C)C [II-520]
 |  |  |  | 1000 to 10000 | 1000 to 10000 | +++ (≥350) | 100 to 200 |  |  |  | COc1cc(C(C)(C)C)ccc1CN[C@H]1[C@H](C(C)(C)C)[C@@H](C(=O)O)N(C(=O)C2CCCCC2)[C@H]1c1cccnc1OC [II-101]
1000 to 10000 | 1000 to 10000 | ++ (≥150 and <350) |  |  |  |  |  | < 100 |  |  | COc1cc(C(F)(F)F)ccc1CN[C@@H]1[C@@H](C(C)(C)C)[C@H](C(=O)O)N(C(=O)C(C)c2ccccc2)[C@@H]1c1ccccc1 (single isomer, unassigned) [III-112]
 |  |  |  | < 1000 | < 1000 | +++ (≥350) | 100 to 200 |  |  |  | COc1ncc(Br)cc1CN[C@H]1[C@H](C(C)(C)C)[C@@H](C(=O)O)N(C(=O)C2CCCCC2)[C@H]1c1ccccc1 [II-158]

The next lines start with the molecule.

Structure (SMILES) | EC50 [1] [nM] | EC50 [2] [nM] | Maximum % activity (with co-corrector) (with co-corrector (2 μM)) | Emax (without co-corrector) [%] | EC50 [3] [nM] | EC50 [4] [nM] | Maximum % activity (with co-corrector) [5] | Emax (CSE-HRP, without co-corrector) [%] | Emax [6] [%] | Maximum % activity (with co-corrector) [7] | Maximum % activity (with co-corrector) (with co-corrector (2 μM), 2 µM)
COc1ncc(C(F)(F)F)cc1CN[C@H]1[C@H](C(C)(C)C)[C@@H](C(=O)O)N(C(=O)OC(C)C)[C@H]1c1cccnc1OC(C)C [Example 79, (2S,3S,4S,5S)-3-tert-butyl-4-({[2-methoxy-5-(trifluoromethyl)pyridin-3-yl]methyl}amino)-1-{[(propan-2-yl)oxy]carbonyl}-5-{2-[(propan-2-yl)oxy]pyridin-3-yl}pyrrolidine-2-carboxylic acid] | 1000 to 10000 | 1000 to 10000 | +++ (≥350) | > 200 |  |  |  |  |  |  | 
COc1ccc(C23CC(C2)C3)cc1CN[C@H]1[C@H](C(C)(C)C)[C@@H](C(=O)O)N(C(=O)OC(C)C)[C@H]1c1cccnc1OC [Example I-224] | 1000 to 10000 | 1000 to 10000 | +++ (≥350) | 100 to 200 |  |  |  |  |  |  | 
COc1ccc(C2(C(F)(F)F)CC2)cc1CN[C@H]1[C@H](C(C)(C)C)[C@@H](C(=O)O)N(C(=O)C2Cc3ccccc3O2)[C@H]1c1cccnc1N(C)C (single isomer, unassigned) [Example I-175] | < 1000 | < 1000 |  | < 100 |  |  |  |  |  |  | +++ (≥350)
COc1nc(C(C)(C)C)ccc1CN[C@H]1[C@H](C(C)(C)C)[C@@H](C(=O)O)N(C(=O)[C@H]2CCCCO2)[C@H]1c1ccccc1 [Example 39, (2S,3S,4S,5S)-3-tert-butyl-4-{[(6-tert-butyl-2-methoxypyridin-3-yl)methyl]amino}-1-[(2R)-oxane-2-carbonyl]-5-phenylpyrrolidine-2-carboxylic acid] | 1000 to 10000 | 1000 to 10000 | +++ (≥350) | 100 to 200 |  |  |  |  |  |  | 
COc1cc(C(C)(C)C)ccc1CN[C@H]1[C@H](C(C)(C)OC)[C@@H](C(=O)O)N(C(=O)C2CCCCC2)[C@H]1c1ccccc1 [Example I-62] | 1000 to 10000 | 1000 to 10000 | +++ (≥350) | 100 to 200 |  |  |  |  |  |  | 
COc1ccc(C(C)(C)C)cc1CN[C@H]1[C@H](C(C)(C)C)[C@@H](C(=O)O)N(C(=O)C2CCCCN2S(C)(=O)=O)[C@H]1c1ccccc1 (some centres unmarked) [Example I-138] | 1000 to 10000 | 1000 to 10000 | +++ (≥350) | > 200 |  |  |  |  |  |  | 
COc1nc(C(C)(C)C)ccc1CN[C@H]1[C@H](C(C)(C)C)[C@@H](C(=O)O)N(C(=O)C2CCCC(F)(F)C2)[C@H]1c1ccccc1 (some centres unmarked) [Example I-180] | 1000 to 10000 | 1000 to 10000 | +++ (≥350) | > 200 |  |  |  |  |  |  | 
COc1ncc(C2CCCC2)cc1CN[C@H]1[C@H](C(C)(C)OC)[C@@H](C(=O)O)N(C(=O)C2CCCCC2)[C@H]1c1ccccc1 [Example I-116] | < 1000 | < 1000 | +++ (≥350) | 100 to 200 |  |  |  |  |  |  | 

From patent US20180099931A1 (AbbVie S.à.r.l., priority 2016, published 2018)
